The values below come from US12414948B2, “Methods” (INTRA-CELLULAR THERAPIES, INC., priority 2022, dated 2025).

The subject of assay [1] is hippocampal mRNA (Il1b, Il6, Tnfa, Il10, Cldn5). Nature of the assay: Hippocampal mRNA (qRT-PCR) after acute restraint stress. The assay is classed as in vivo, mouse. To be noted: mice, 2 h restraint stress, Luma 3 mg/kg IP. The protocol:
Quantitative Real-Time PCR. Mouse hippocampal tissue is homogenized with glass beads in 1 mL of TRIzol reagent using a BeadBeater (Biospec Products, Bartlesville, OK). Heavy phase-lock gel tubes enabled separation of phases following the addition of 400 μL chloroform to the sample and centrifugation at 12,000 rpm for 10 minutes at room temperature. RNA is extracted using Qiagen Rneasy kit (Qiagen, Hilden, Germany). For cDNA synthesis, 2 μg of total RNA is used (SuperScript IV Reverse Transcriptase; ThermoFisher Scientific, Waltham, MA). The purity and concentration of RNA is measured with a Nanodrop spectrophotometer; the optical density (OD) 260/280 and OD 260/230 are within 1.8-2.3. In the hippocampus, 4 key markers of pro- and anti-inflammatory cytokines and chemokines (Il1b: ID Mm00434228_m1, Tnfa: ID Mm00443258_m1, 116: ID Mm00446190_m1, and I110: ID Mm01288386_m1; ThermoFisher Scientific) are initially chosen for analysis (n=5-12 per group). In subsequent experiments, the transcripts for other markers of inflammation are chosen for analysis including Icam1 (ID Mm00516023_m1; a cell adhesion molecule involved in immune cell migration), Cldn5 (ID Mm00727012_s1; a tight junctions protein), colony stimulating factor 1 (Csf1: ID Mm00432686_m1; a factor that regulates microglia function) and its receptor Csf1r (ID Mm01266652_m1), and the nucleotide binding and oligomerization domain-like receptor family pyrin domain-containing 3 inflammasome complex (Nlrp3: Mm00840904_m1). Gapdh (ID Mm99999915_g1) is chosen as a housekeeping gene. […] All mRNAs are measured by qRT-PCR on ABI Prism 7900HT system using TaqMan Gene Expression Assays. […]
Using similar procedures as described above, serum corticosterone levels and hippocampal Cldn5 mRNA expression are measured as well (corticosterone is measured using a commercial ELISA kit).
Background: Quantitative PCR measures a nucleic acid by following its amplification.

A further assay relates to Sprague-Dawley rats. The assay is described as follows: Reward sniffing test (female urine sniffing test, FUST), LPS-induced anhedonia. In kind it is in vivo, rat. To be noted: rats given LPS 1 mg/kg SC, label LPS = LPS + Vehicle, label Luma = Luma 1 mg/kg IP 24 h before and 24 h after LPS. The protocol: All other reagents are obtained in the highest purity available from Sigma-Aldrich (St. Louis, MO) unless otherwise noted. […] Some rodents are given a cotreatment with a subcutaneous (SC) injection of lipopolysaccharide (LPS, 500 μg/kg; Sigma-Aldrich, ref #0127:B8) diluted in 0.9% injectable saline while control group animals receive injections of all vehicles matching the experimental conditions. […] On day 2, either no injection for naïve rats, or saline or LPS is injected (1 mg/kg, SC).
Behavioral Evaluation. All behavioral tests are performed in the morning with adult male Sprague-Dawley rats (n=9-11 per group for the experiments with LPS, and n=13-14 per group for the naïve rats).
Reward Sniffing Test (also known also as female urine sniffing test (FUST)): In this anhedonia-based assay, rats are brought to a well-ventilated testing room under dim lighting. A sterile cotton-tipped applicator is attached to one wall in the home cage for 1 hour to habituate rats to this new object. For the 2 phases of the 5 minute test, rats are first exposed to a new cotton tip dipped in sterile water as a control that is removed at the end of the 5 minutes; 45 minutes later, another cotton tip previously dipped into fresh rat urine collected from females of the same strain is attached to the cage wall. Male behavior is video recorded and latency to first sniff of the cotton tip and total time spent sniffing the cotton-tipped applicator are determined.
In a pilot study, a dose response curve is conducted with varying doses of LPS to select an optimal dose for inducing an anhedonic response in rats. Based on these studies, a SC dose of 1 mg/kg LPS is selected. […] This is followed 24 hours later by an injection of LPS (1 mg/kg; SC). […] Control rats are administered saline instead of LPS and vehicle instead of lumateperone. Anhedonia is assessed using FUST (female urine sniffing test) and measuring latency to sniff the reward combined with time spent sniffing the reward. Latency sniffing water is used as a control. […]

[2] abbreviates: relative change normalized to control (Dct method).

For the compound `CN1CCN2c3c(cccc31)[C@@H]1CN(CCCC(=O)c3ccc(F)cc3)CC[C@@H]12` [Luma, lumateperone], the “Hippocampal mRNA expression Cldn5” value in assay [1] (normalized to control) is 0.330. Further, in assay [1] (setting [2]), the “Hippocampal cytokine mRNA expression IL-1b” value came out at 0.39 and the “Hippocampal cytokine mRNA expression IL-6” value is −0.051.
Turning to “lipopolysaccharide [LPS, reference compound]”, the “FUST Latency sniffing water” value in the assay with Sprague-Dawley rats (control test) was found to be 274.27 s. Further, in the assay with Sprague-Dawley rats, the “FUST Latency sniffing reward” value was found to be 164.2 s and the “FUST Time sniffing reward” value stood at 11.11 s.
